What all share (type): cell-based
The test system of assay [1] is NSCLC A549 lung cancer cells. As to the kind of experiment: XTT assay, cell proliferation after 72 hours incubation, IC50. Here is the method:
Example 10 (see also FIG. 10) is a study to determine the effect of the combination of calcium blockers on the proliferation of cancer cells. NSCLC A549 lung cancer cells were incubated with various concentrations of a combination of calcium blockers ranging from 1 μM to 50 μM. […] An XTT assay was then performed. The cell proliferation was then calculated. Results are representative of at least three independent experiments. IC50 was calculated from the % inhibition data.
For orientation: Tetrazolium dyes change colour on reduction, which living cells bring about.

Assay [2] relates to A549 lung cancer cells. As to the kind of experiment: Intracellular free calcium, Fura-2-AM fluorescence measurement.
Description: The intracellular free calcium measurement was done using Fura-2-AM fluorescence measurement. […] Ionomycin was used as the positive control for stimulation of calcium entry. Calcium was removed from the medium at the end of each experiment via addition of EGTA or replacement of the medium with calcium free medium. The calculation of the absolute calcium concentration was performed using a standard calcium curve. An average of 15 cells is shown.
The intracellular free calcium measurement was done using Fura-2-AM fluorescence measurement. […] The calculation of the absolute calcium concentration was performed using a standard calcium curve. An average of 15 cells is shown.
The intracellular free calcium measurement was done using Fura-2-AM fluorescence measurement. […] Ionomycin was used as the positive control for stimulation of calcium entry.
Assay [3] has as its system A549 lung cancer cells. As to the kind of experiment: XTT assay, cell proliferation 48 hours after addition. The conditions noted are these: increasing concentrations. Here is the method:
An XTT assay was performed 48 hours after the addition of nitrendipine at increasing concentrations. The cell proliferation was then calculated. Results are representative of at least three independent experiments. The results are illustrated in FIG. 1B. […] Without limitation by theory, it is theorized that nitrendipine lethally flooded the cells with calcium at the noted concentrations.
An XTT assay was performed 48 hours after the addition of nicardipine at increasing concentrations. The cell proliferation was then calculated. Results are representative of at least three independent experiments. The results are illustrated in FIG. 2B. […] Without limitation by theory, it is theorized that the nicardipine-initiated block of the entry of extracellular free calcium inhibits the cell's ability to undergo or successfully finish cytokinesis, and this may lead to cell death.
An XTT assay was performed 48 hours after the addition of nisoldipine at increasing concentrations. The cell proliferation was then calculated. Results are representative of at least three independent experiments. The results are illustrated in FIG. 4B. […] Without limitation by theory, it is theorized that the nisoldipine-initiated block of the entry of extracellular free calcium inhibits the cell's ability to undergo or successfully finish cytokinesis and this may lead to cell death.
The cell proliferation was then calculated. Results are representative of at least three independent experiments. The results are illustrated in FIG. 7B. […] Without limitation by theory, it is theorized that the loperamide-initiated block of the entry of extracellular free calcium inhibits the cell's ability to undergo or successfully finish cytokinesis, and this may lead to cell death.

Assay [4] deals with NSCLC A549 lung cancer cells. Put plainly: XTT assay, cell proliferation after 24 hours incubation. Here is the method: Example 6 was a study to determine the effect of treatment with nitrendipine and the dihydropyridine of Formula IV above on the proliferation of cancer cells. NSCLC A549 lung cancer cells were incubated with various concentrations of nitrendipine and the dihydropyridine of Formula IV ranging from 1 μM to 100 μM. 5000 cells were plated in RPMI medium per well and incubated with either the individual drugs for 24 hours. An XTT assay was then performed. The cell proliferation was then calculated. FIG. 6 is a graphical representation of the results.
Example 8 was a study to determine the effect of the combination of calcium blockers on the proliferation of cancer cells. NSCLC A549 lung cancer cells were incubated with various concentrations of a combination of calcium blockers ranging from 1 μM to 50 μM. In this specific example, the combination of loperamide and the dihydropyridine, nitrendipine, was used. […] An XTT assay was then performed. The cell proliferation was then calculated. Results are representative of at least three independent experiments. FIG. 8 is a graphical representation of the results.
Example 9 is a study to determine the effect of the combination of calcium blockers on the proliferation of cancer cells. NSCLC A549 lung cancer cells were incubated with various concentrations of a combination of calcium blockers ranging from 1 μM to 50 μM. In this specific example, the combination of loperamide and the dihydropyridine, nicardipine, was used. […] An XTT assay was then performed. The cell proliferation was then calculated. Results are representative of at least three independent experiments. FIG. 9 is a graphical representation of the results.

Setting [5] is: Homo sapiens, A549, compound alone plus DMSO, 72 hours, read-out: Plus DMSO (Control), IC-50.
Where [6] appears, read: read-out: Plus Loperamide, IC-50, in combination with loperamide (5 uM per FIG. 10), 72 hours.
Setting [7] is: compound alone plus DMSO, 72 hours.

Like-named read-outs stand apart in the source and are kept apart here.

As for `CCOC(=O)C1=C(C)NC(C)=C(C(=O)OCC)C1c1ccccc1/C=C/C(=O)OC(C)(C)C` [Lacidipine], the IC50 in assay [1] (setting [5]) turned out to be 16 µM.
Regarding `COC(=O)C1=C(C)NC(C)=C(C(=O)OC(C)(C)CN(C)CCC(c2ccccc2)c2ccccc2)C1c1cccc([N+](=O)[O-])c1` (racemic) [Lercanidipine], the results for the IC50 in assay [1] (setting [5]) and in assay [1] (setting [6]) were 7.7 µM and 3.95 µM, respectively.
As for `COC(=O)C1=C(C)NC(C)=C(C(=O)OCCCN2CCC(c3ccccc3)(c3ccccc3)CC2)[C@H]1c1cccc([N+](=O)[O-])c1` [Niguldipine], the IC50 in assay [1] (Homo sapiens, A549, 72 h, read-out: Plus DMSO (Control), IC-50) is 5.37 µM; in assay [1] (read-out: Plus Loperamide, IC-50) it was 3.12 µM.
`COC(=O)C1=C(C)NC(C)=C(C(=O)OC)C1c1ccccc1[N+](=O)[O-]` [Nifedipine]: the “Plus DMSO (Control), IC-50” value in assay [1] (setting [7]) is recorded as “No Activity”.
For the compound `CC1=C(C(=O)OCCN(Cc2ccccc2)c2ccccc2)C(c2cccc([N+](=O)[O-])c2)C(P2(=O)OCC(C)(C)CO2)=C(C)N1` (centres unmarked) [Efonidipine], the IC50 in assay [1] (setting [5]) was 10.2 µM.
`CCOC(=O)C1=C(C)NC(C)=C(C(=O)OC)C1c1cccc([N+](=O)[O-])c1` (racemic) [Nitrendipine, (RS)-3-Ethyl 5-methyl 2,6-dimethyl-4-(m-nitrophenyl)-1,4-dihydropyridine-3,5-dicarboxylate]: the “effect on intracellular free calcium” value is “functions as an agonist for the entry of extracellular calcium” in assay [2] (1 μM and 5 μM treatments); “floods the cells with calcium” in assay [2] (consecutive treatments with nitrendipine and nicardipine, 20 μM each). Besides, the “concentration of intracellular calcium versus positive control (ionomycin)” value in assay [2] (5 μM treatment) is reported as “greater than that of the positive control”. In addition, in assay [3], the “percentage of cell growth” value is reported as “decreases as the concentration of nitrendipine is increased”. Also, the Avg. % proliferation in assay [4] (Example 6, 1 μM) was 86.24%; in assay [4] (Example 6, 5 μM), 87.19%; in assay [4] (Example 6, 10 μM) it was 75.97%; in assay [4] (Example 6, 50 μM), 52.21%; in assay [4] (Example 6, 100 μM), 24.42%; in assay [4] (Example 8, 1 μM), 102.33%. Also, the Avg. % proliferation in assay [4] (Example 8, 5 μM) was 93.35%; in assay [4] (Example 8, 10 μM), 102.58%; in assay [4] (Example 8, 50 μM), 71.43%.
`COCCOC(=O)C1=C(C)NC(C)=C(C(=O)OC(C)C)C1c1cccc([N+](=O)[O-])c1` (centres unmarked) [Nimodipine]: the “Plus DMSO (Control), IC-50” value in assay [1] (setting [7]) is recorded as “No Activity”.
For the compound `CCOC(=O)C1=C(C)NC(C)=C(C(=O)OC)C1c1cccc(Cl)c1Cl` (centres unmarked) [Felodipine], the IC50 in assay [1] (setting [5]) was found to be 26 µM.
In the case of `CC1=C(C(=O)OC(C)C)C(c2cccc([N+](=O)[O-])c2)C(C(=O)OC2CN(C(c3ccccc3)c3ccccc3)C2)=C(N)N1` (centres unmarked) [Azelnidipine], the values for the IC50 in assay [1] (setting [5]) and in assay [1] (setting [6]) were 8.5 µM and 4.8 µM, respectively.
For `CCOC(=O)C1=C(C)NC(C)=C(C(=O)OC)C1c1ccccc1` (centres unmarked) [Formula IV, 5-O-ethyl 3-O-methyl 2,6-dimethyl-4-phenyl-1,4-dihydropyridine-3,5-dicarboxylate], the “effect on intracellular free calcium” value in assay [2] (5 μM and 50 μM treatments) is recorded as “blocks the influx of extracellular calcium”. In addition, the Avg. % proliferation stood at 96.4% in assay [4] (Example 6, 5 μM); 104.2% in assay [4] (Example 6, 10 μM); 79.06% in assay [4] (Example 6, 50 μM); 67.8% in assay [4] (Example 6, 100 μM).
Turning to `CN(C)C(=O)C(CCN1CCC(O)(c2ccc(Cl)cc2)CC1)(c1ccccc1)c1ccccc1` [Loperamide, 4-[4-(4-Chlorophenyl)-4-hydroxypiperidin-1-yl]-N,N-dimethyl-2,2-diphenylbutanamide], the “effect on intracellular free calcium” value in assay [2] (5 μM and 50 μM treatments) was “blocks the influx of extracellular calcium”. Also, the “percentage of cell growth” value in assay [3] is listed as “decreases as the concentration of loperamide is increased”. Also, the Avg. % proliferation in assay [4] (Example 8, 1 μM) amounted to 98.07%; in assay [4] (Example 8, 5 μM) it was 99.77%; in assay [4] (Example 8, 10 μM), 96.09%; in assay [4] (Example 8, 50 μM) it was 34.04%; in assay [4] (Example 9, 1 μM), 92.73%; in assay [4] (Example 9, 5 μM), 86.97%. Besides, the Avg. % proliferation is recorded as 90.33% in assay [4] (Example 9, 10 μM) and 32.03% in assay [4] (Example 9, 50 μM).
`COC(=O)C1=C(C)NC(C)=C(C(=O)OC(C)C)C1c1cccc2nonc12` (centres unmarked) [Isradipine]: the IC50 in assay [1] (setting [5]) amounted to 26 µM.
As for `COc1ccc(CCN(C)CCCC(C#N)(c2ccc(OC)c(OC)c2)C(C)C)cc1OC` (centres unmarked) [Verapamil], the “Plus DMSO (Control), IC-50” value in assay [1] is “No Activity”.
Turning to `COCCOC(=O)C1=C(C)NC(C)=C(C(=O)OC/C=C/c2ccccc2)C1c1cccc([N+](=O)[O-])c1` (centres unmarked) [Clinidipine], the IC50 in assay [1] (read-out: Plus DMSO (Control), IC-50) turned out to be 41 µM.
For `CCCC(=O)OCOC(=O)C1=C(C)NC(C)=C(C(=O)OC)C1c1cccc(Cl)c1Cl` (centres unmarked) [Clevidipine], the IC50 in assay [1] (setting [5]) is 23 µM.
As for `COC(=O)C1=C(C)NC(C)=C(C(=O)OCC(C)C)C1c1ccccc1[N+](=O)[O-]` (centres unmarked) [nisoldipine, isobutyl methyl 2,6-dimethyl4-(2-nitrophenyl)-1,4-dihydropyridine-3,5-dicarboxylate], the “effect on intracellular free calcium” value in assay [2] (5 μM and 10 μM treatments) is recorded as “blocks the influx of extracellular calcium”. The “percentage of cell growth” value in assay [3] is “decreases as the concentration of nisoldipine is increased”.
As to `COc1ccc([C@@H]2Sc3ccccc3N(CCN(C)C)C(=O)[C@@H]2OC(C)=O)cc1` [Diltiazem], the “Plus DMSO (Control), IC-50” value in assay [1] (setting [7]) was “No Activity”.
Take `COC(=O)C1=C(C#N)NC(C)=C(C(=O)OC(C)C)C1c1cccc([N+](=O)[O-])c1` (centres unmarked) [Nilvadipine]: in assay [1] (setting [5]), the IC50 was 17.6 µM.
On the same count and under the same terms, with `COC(=O)C1=C(C)NC(C)=C(C(=O)OC2CCCN(Cc3ccccc3)C2)C1c1cccc([N+](=O)[O-])c1` (centres unmarked) [Benidipine] the figure was 18 µM.
As to `COC(=O)C1=C(C)NC(C)=C(C(=O)OCCN(C)Cc2ccccc2)C1c1cccc([N+](=O)[O-])c1` (centres unmarked) [Nicardipine, 2-[benzyl(methyl)amino]ethylmethyl-2,6-dimethyl-4-(3-nitrophenyl)-1,4-dihydropyridine-3,5-dicarboxylate], the Avg. % proliferation is listed as 99.90% in assay [4] (Example 9, 1 μM); 100.23% in assay [4] (Example 9, 5 μM); 86.20% in assay [4] (Example 9, 10 μM); 32.97% in assay [4] (Example 9, 50 μM). For the same compound, the IC50 in assay [1] (setting [5]) turned out to be 13.7 µM; in assay [1] (setting [6]) it was 6.7 µM.
On to `CCOC(=O)C1=C(COCCN)NC(C)=C(C(=O)OC)C1c1ccccc1Cl` (centres unmarked) [Amlodipine], for which, in assay [1] (setting [5]), the IC50 came out at 22 µM.
On the same count and under the same terms, with `COC(=O)C1=C(C)NC(C)=C(C(=O)OCCN2CCN(C(c3ccccc3)c3ccccc3)CC2)C1c1cccc([N+](=O)[O-])c1` (centres unmarked) [Manidipine] the figure was 8.2 µM.

The record behind these values is patent publication US20200129492A1, “TREATMENT OF CANCER WITH DIHYDROPYRIDINES” (MENRI GROUP LTD., priority 2017, published 2020).
